# From PubChem BioAssay (NCI)
# “And” between values parts separate entries of the source, which are not always exact repeats. Equal values may be shown once.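 Test compounds were applied to cells in 96-well plates for 48 hours at 5 doses. GI50: concentration for 50% inhibition of growth. TGI denotes the concentration required for complete inhibition of growth.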 Residues, ends and D or L forms follow the SMILES beside them. *: point of attachment. Cbz = O=C(OCc1ccccc1)*
# Tests used:
# Test in all cases: inhibition of tumour cell growth, NCI panel, 48 h
# [1] = test system: K-562 leukemia
# [2] = test system: NCI-H522 lung
# [3] = test system: NCI-H23 lung
# [4] = test system: UACC-62 melanoma
# [5] = test system: MDA-MB-231 breast
# [6] = test system: HCC-2998 colon
# [7] = test system: M14 melanoma
# [8] = test system: MALME-3M melanoma
# [9] = test system: HCT-116 colon
# [10] = test system: HL-60(TB) leukemia
Structure (SMILES),GI50 [1],TGI [1],GI50 [2],TGI [2],GI50 [3],TGI [3],GI50 [4],TGI [4],GI50 [5],TGI [5],GI50 [6],TGI [6],GI50 [7],TGI [7],TGI [8],TGI [9],GI50 [8],GI50 [10],TGI [10],GI50 [9]
NC(N)=N/N=C/c1c(-c2cccnc2)nc2sc(Cl)cn12,19100 nM,43.3 µM,30600 nM,> 100 µM,16.1 µM,31.7 µM,14100 nM,27.1 µM,7950 nM,21.9 µM,14.4 µM,27.5 µM,16500 nM,30.1 µM,,,,,,
O=C(O)c1c2c(cc3c(=O)cc(-c4ccccc4)oc13)CCCC2,,> 100 µM,,> 100 µM,,> 100 µM,,> 100 µM,,,,> 100 µM,,> 100 µM,> 100 µM,> 100 µM,,,,
CC[PH+](CC)CC.CC[PH+](CC)CC.[Au],5980 nM,41.1 µM,308 nM,1.25 µM,13.3 µM,28.6 µM,3900 nM,19.1 µM,,,20.7 µM,35.2 µM,6680 nM,22 µM,24.7 µM,32.9 µM,11.4 µM,345 nM,2.09 µM,16000 nM
CC(=O)OCC1OC(n2ncc(=O)[nH]c2=O)C(OC(C)=O)C1OC(C)=O (stereo unspecified),,> 100 µM,,> 100 µM,,> 100 µM,,> 100 µM,,,,> 100 µM,,> 100 µM,> 100 µM,> 100 µM,,,,
CN1CCN(CCCN2c3ccccc3Sc3ccc(Cl)cc32)CC1,,,42000 nM,56.8 µM,,12 µM,,,,,3.53 µM,10.3 µM,,,14.3 µM and 55.9 µM,12 µM and 54.2 µM,6.01 µM and 39.7 µM,8850 nM,17.9 µM,5150 nM and 39900 nM
CC(C)=NNC(=S)NC12CC3CC(CC(C3)C1)C2,,> 100 µM,,> 100 µM,,> 100 µM,,> 100 µM,,,,,,> 100 µM,,> 100 µM,,,> 100 µM,
Cc1ccc(C(=O)NCCN(C)C)c2nc3ccccc3cc12,,> 100 µM,,,,,,> 100 µM,,,,13.4 µM,,> 100 µM,> 100 µM,10.9 µM,,,> 100 µM,
O=C1C(=O)N(c2ccc(Cl)cc2)C(=O)C(=Nc2cccc3c(=O)[nH][nH]c(=O)c23)C1c1nc2ccccc2o1 (stereo unspecified),,> 100 µM,,,,> 100 µM,,> 100 µM,,,,> 100 µM,,> 100 µM,> 100 µM,> 100 µM,,,> 100 µM,
O=S(=O)(NCCCNc1cc(-c2cn(-c3ccccc3)nc2-c2cccc(O)c2)ccn1)c1ccc(Br)cc1,444 nM,2.89 µM,2110 nM,4.85 µM,2.19 µM,12.1 µM,1570 nM,3.59 µM,1600 nM,4.25 µM,2 µM,3.78 µM,1780 nM,3.78 µM,,4.22 µM,,1790 nM,4.92 µM,1710 nM
Cc1ccc(S(=O)(=O)OCCOCCOCCOCCOCCOS(=O)(=O)c2ccc(C)cc2)cc1,,> 100 µM,,> 100 µM,,> 100 µM,,> 100 µM,,,,> 100 µM,,> 100 µM,> 100 µM,> 100 µM,,,,
Oc1ccccc1/C=N\NC(=S)N/N=C/c1ccccc1O,1590 nM,> 100 µM,5760 nM,36.5 µM,3.91 µM,> 100 µM,1230 nM,7.56 µM,3050 nM,> 100 µM,3.62 µM,> 100 µM,1630 nM,6.33 µM,,> 100 µM,,2040 nM,14.6 µM,1370 nM
C=CC(=O)Nc1cccc(Oc2nc(Nc3ccc(N4CCN(C)CC4)cc3OC)ncc2Cl)c1,,,308 nM,1.75 µM,3.92 µM,23.7 µM,1870 nM,3.58 µM,1940 nM,4.12 µM,1.72 µM,3.35 µM,1820 nM,3.47 µM,,3.06 µM,,,,1640 nM
CCNCCNc1cc(-c2ccc(C(F)(F)F)cc2)c(C#N)c2nc3cc(Cl)c(Cl)cc3n12,183 nM,0.365 µM,1780 nM,3.37 µM,1.77 µM,3.52 µM,1840 nM,3.57 µM,1510 nM,3.1 µM,2.34 µM,4.14 µM,1590 nM,3.12 µM,,0.338 µM,,308 nM,1.01 µM,177 nM
CN(/N=C\c1ccnc2ccccc12)c1ccccc1,,51.4 µM,,41.9 µM,,48.6 µM,,37.2 µM,,,,,,38.2 µM,52.8 µM,36 µM,,,39.2 µM,
O=C(O)CN(c1ccc(F)cc1)S(=O)(=O)c1ccccc1,,> 100 µM,,> 100 µM,,> 100 µM,,> 100 µM,,,,,,> 100 µM,> 100 µM,,,,> 100 µM,
O=[N+]([O-])C=C1c2ccccc2-c2ccccc21,,6.34 µM,,,,30.4 µM,,,,,,30.6 µM,,25.3 µM,,17.5 µM,,,23.7 µM,
Cc1c2c(nn1-c1ccc(S(=O)(=O)NC(=S)NC(=O)c3ccccc3)cc1)-c1ccccc1CC2,6090 nM,> 100 µM,50400 nM,> 100 µM,53.9 µM,> 100 µM,29000 nM,> 100 µM,42500 nM,> 100 µM,89.2 µM,> 100 µM,> 100000 nM,> 100 µM,,,,3850 nM,> 100 µM,
CC(=O)OCCCC#CC#Cc1cccc(=O)o1,5380 nM,28.9 µM,32100 nM,> 100 µM,15.8 µM,33 µM,14600 nM,28.9 µM,13700 nM,29 µM,16.6 µM,33.2 µM,17800 nM,36.5 µM,,29.1 µM,,,,14600 nM
NCCSC(c1ccccc1)(c1ccccc1)c1ccccc1,322 nM,1.61 µM,369 nM,1.7 µM,3.38 µM,13.6 µM,,,607 nM,2.33 µM,,,354 nM,1.15 µM,,1.49 µM,,879 nM,3.03 µM,373 nM
CC(C)C[C@@H](C=O)NC(=O)[C@H](CC(C)C)NC(=O)[C@H](CC(C)C)NC(=O)OCc1ccccc1 (Cbz-Leu-Leu-Leu-aldehyde),368 nM,> 100 µM,212 nM,0.614 µM,0.422 µM,2.99 µM,235 nM,0.548 µM,328 nM,1.21 µM,0.24 µM,0.631 µM,338 nM,1.74 µM,,1.04 µM,,330 nM,1.89 µM,294 nM
COc1cc(O)c2c(c1)C(=O)C1=C(C2=O)C(O)C[C@@](C)(O)C1 (stereo partly specified),,2.46 µM,,2.47 µM,,3.3 µM,,3.1 µM,,,,2.91 µM,,2.02 µM,2.11 µM,2.22 µM,,,1.5 µM,
COc1ccc2nc3cccc([N+](=O)[O-])c3c(NC(C)CN(C)C)c2c1 (stereo unspecified),1560 nM,4.03 µM,690 nM,2.18 µM,2.1 µM,5.33 µM,1460 nM,3.05 µM,2230 nM,10.6 µM,,,1410 nM,2.8 µM,,7.49 µM,,2670 nM,,1440 nM
C=C1CC2(CCS(=O)(=O)c3ccccc32)OC1=O (stereo unspecified),,34.4 µM,,11.4 µM,,27.7 µM,,31.6 µM,,,,37.1 µM,,20.3 µM,26.3 µM,,,,8.64 µM,
Cc1ccc(Sc2ccccc2N)cc1,,> 100 µM,,38.1 µM,,93.3 µM,,> 100 µM,,,,> 100 µM,,> 100 µM,> 100 µM,> 100 µM,,,49.6 µM,
O=C(CSSCC(=O)Nc1ccc(Br)cc1)Nc1ccc(Br)cc1,,> 100 µM,,24.8 µM,,35.2 µM,,29.3 µM,,,,50.6 µM,,32.7 µM,43 µM,28.1 µM,,,48.5 µM,
CCOC(=O)CN(c1ccccc1)c1nc(=[N+](C)C)ss1,,> 100 µM,,0.492 µM,,,,59.3 µM,,,,> 100 µM,,96.8 µM,70.4 µM,> 100 µM,,,48.4 µM,
N#CCc1nnc(N)o1,,> 100 µM,,> 100 µM,,> 100 µM,,> 100 µM,,,,,,> 100 µM,> 100 µM,> 100 µM,,,> 100 µM,
COc1cccc(C2SCc3nc4ccccc4n32)c1 (stereo unspecified),,> 100 µM,,,,> 100 µM,,> 100 µM,,,,> 100 µM,,> 100 µM,> 100 µM,> 100 µM,,,> 100 µM,
COC(=O)C1[C@H](c2ccc3c(c2)OCO3)OC(=O)[C@]1(C(=O)OC)C(=O)c1ccc(OC)c(OC)c1 (stereo partly specified),,> 100 µM,,,,> 100 µM,,> 100 µM,,,,> 100 µM,,> 100 µM,> 100 µM,,,,55.2 µM,
c1ccc2c(CNCCCCCCCCNCc3cccc4ccccc34)cccc2c1,,3.73 µM,,3.24 µM,,14.8 µM,,3.24 µM,,,,,,3.18 µM,3.41 µM,3.05 µM,,,4.64 µM,
